# Legend:
# Enterococcus faecalis = assay: Antibacterial activity against linezolid-resistant Enterococcus faecalis assessed as inhibition of bacterial growth incubated for 16 to 20 hrs by CLSI based broth liquid microdilution method; assay type: functional; conditions: time 16-20 hrs
# Staphylococcus aureus [1] = assay: Antibacterial activity against methicillin-sensitive Staphylococcus aureus assessed as inhibition of bacterial growth incubated for 16 to 20 hrs by CLSI based broth liquid microdilution method; assay type: functional; conditions: time 16-20 hrs
# Staphylococcus aureus [2] = assay: Antibacterial activity against linezolid-resistant Staphylococcus aureus assessed as inhibition of bacterial growth incubated for 16 to 20 hrs by CLSI based broth liquid microdilution method; assay type: functional; conditions: time 16-20 hrs
# Staphylococcus aureus [3] = assay: Antibacterial activity against methicillin-resistant Staphylococcus aureus assessed as inhibition of bacterial growth incubated for 16 to 20 hrs by CLSI based broth liquid microdilution method; assay type: functional; conditions: time 16-20 hrs
# Staphylococcus aureus [4] = assay: Antibacterial activity against Staphylococcus aureus ATCC29213 assessed as inhibition of bacterial growth incubated for 16 to 20 hrs by CLSI based broth liquid microdilution method; assay type: functional; conditions: time 16-20 hrs
# [5] = Apparent permeability across apical to basolateral side in human Caco-2 cells; assay type: ADME, cell-based
# [6] = Cmax in Sprague-Dawley rat at 10 mg/kg, IG measured upto 24 hrs by LC-MS analysis; assay type: ADME, organism-based; conditions: in vivo, po
# [7] = Aqueous solubility of compound at pH 2 by LC-MS/MS analysis; assay type: physicochemical; conditions: buffer
# [8] = Solubility of compound at pH 2; assay type: physicochemical; conditions: buffer
# [9] = Aqueous solubility of compound at pH 7.4 by LC-MS/MS analysis; assay type: physicochemical; conditions: buffer
# [10] = Elimination half life in Sprague-Dawley rat at 10 mg/kg, IG measured upto 24 hrs by LC-MS analysis; assay type: ADME, organism-based; conditions: in vivo, po, read-out: beta t1/2 (converted)
# [11] = Apparent volume of distribution in Sprague-Dawley rat at 1 mg/kg, iv measured upto 24 hrs by LC-MS analysis; assay type: ADME, organism-based; conditions: in vivo, read-out: Vz
# [12] = Bioavailability in Sprague-Dawley rat at 10 mg/kg, IG measured upto 24 hrs by LC-MS analysis; assay type: ADME, organism-based; conditions: in vivo, po
# [13] = Efflux ratio of apparent permeability across […] side in human Caco-2 cells; assay type: ADME, cell-based
# [14] = AUC (0 to t) in Sprague-Dawley rat at 1 mg/kg, iv measured upto 24 hrs by LC-MS analysis; assay type: ADME, organism-based; conditions: in vivo
# [15] = Clearance in Sprague-Dawley rat at 1 mg/kg, iv measured upto 24 hrs by LC-MS analysis; assay type: ADME, organism-based; conditions: in vivo
# [16] = Tmax in Sprague-Dawley rat at 10 mg/kg, IG measured upto 24 hrs by LC-MS analysis; assay type: ADME, organism-based; conditions: in vivo, po
# [17] = AUC (0 to t) in Sprague-Dawley rat at 10 mg/kg, IG measured upto 24 hrs by LC-MS analysis; assay type: ADME, organism-based; conditions: in vivo, po
# [18] = Solubility of compound at pH 7.4; assay type: physicochemical; conditions: buffer
# [19] = Elimination half life in Sprague-Dawley rat at 1 mg/kg, iv measured upto 24 hrs by LC-MS analysis; assay type: ADME, organism-based; conditions: in vivo, read-out: beta t1/2 (converted)
SMILES,MIC (Enterococcus faecalis),MIC (Staphylococcus aureus [1]),MIC (Staphylococcus aureus [2]),MIC (Staphylococcus aureus [3]),MIC (Staphylococcus aureus [4]),other results
CC(C)(C)C(=O)NC[C@H]1CN(c2ccc(-c3ccc(/C=N/N4CCCCC4)nc3)c(F)c2)C(=O)O1,> 16 µg/mL,4 µg/mL,> 16 µg/mL,4 µg/mL,4 µg/mL,–
CS(=O)(=O)OC[C@H]1CN(c2ccc(-c3ccc(/C=N/N4CCCCC4)nc3)c(F)c2)C(=O)O1,1 µg/mL,0.008 µg/mL,> 16 µg/mL,0.008 µg/mL,0.015 µg/mL,–
Cc1cccc(N/N=C/c2ccc(-c3ccc(N4C[C@H](CO)OC4=O)cc3F)cn2)n1,1 µg/mL,0.25 µg/mL,0.5 µg/mL,0.5 µg/mL,0.5 µg/mL,–
O=C1O[C@@H](CF)CN1c1ccc(-c2ccc(/C=N/N3CCCCC3)nc2)c(F)c1,> 16 µg/mL,0.25 µg/mL,0.5 µg/mL,0.5 µg/mL,0.25 µg/mL,–
O=C1O[C@@H](CO)CN1c1ccc(-c2ccc(/C=N/Nc3ccncn3)nc2)c(F)c1,64 µg/mL,1 µg/mL,1 µg/mL,1 µg/mL,1 µg/mL,–
NC(=S)N/N=C/c1ccc(-c2ccc(N3C[C@H](CO)OC3=O)cc2F)cn1,1 µg/mL,0.125 µg/mL,0.25 µg/mL,0.125 µg/mL,0.125 µg/mL,–
Cc1cc(Br)cc(C(=O)N2CCN(/N=C/c3ccc(-c4ccc(N5C[C@H](CO)OC5=O)cc4F)cn3)CC2)c1,4 µg/mL,0.125 µg/mL,0.25 µg/mL,0.25 µg/mL,0.25 µg/mL,–
COC[C@H]1CN(c2ccc(-c3ccc(/C=N/N4CCCCC4)nc3)c(F)c2)C(=O)O1,> 16 µg/mL,> 16 µg/mL,–,–,> 16 µg/mL,–
N=C(N)N/N=C/c1ccc(-c2ccc(N3C[C@H](CO)OC3=O)cc2F)cn1,2 µg/mL,0.5 µg/mL,1 µg/mL,1 µg/mL,1 µg/mL,–
CC(=O)NC[C@H]1CN(c2ccc(-c3ccc(/C=N/N4CCS(=O)(=O)CC4)nc3)c(F)c2)C(=O)O1,0.25 µg/mL,0.125 µg/mL,0.125 µg/mL,0.125 µg/mL,0.125 µg/mL,Papp A→B [5]: 0.27 ×10⁻⁶ cm/s; Cmax [6]: 140 ng/mL; solubility [7]: 70.4 µM; solubility [8]: 70.4 µM; solubility [9]: 38 µM; half-life [10]: 154 min; Vd [11]: 0.58 L/kg; bioavailability [12]: 3.6%; Ratio [13]: 64; AUC(0-t) at 24 h [14]: 1290 ng·h/mL; clearance [15]: 12.9 mL/min/kg; Tmax [16]: 30 min; AUC(0-t) at 24 h [17]: 469 ng·h/mL; solubility [18]: 2.38 µM; half-life [19]: 44.4 min
CS(=O)(=O)NC[C@H]1CN(c2ccc(-c3ccc(/C=N/N4CCCCC4)nc3)c(F)c2)C(=O)O1,4 µg/mL,0.125 µg/mL,> 16 µg/mL,0.125 µg/mL,0.06 µg/mL,–
CCS(=O)(=O)NC[C@H]1CN(c2ccc(-c3ccc(/C=N/N4CCCCC4)nc3)c(F)c2)C(=O)O1,8 µg/mL,1 µg/mL,> 16 µg/mL,1 µg/mL,1 µg/mL,–
O=C1O[C@@H](CO)CN1c1ccc(-c2ccc(/C=N/NC3=NCCN3)nc2)c(F)c1,2 µg/mL,0.25 µg/mL,0.5 µg/mL,0.5 µg/mL,0.5 µg/mL,–
O=C1O[C@@H](CO)CN1c1ccc(-c2ccc(/C=N/Nc3ccc(Cl)cc3)nc2)c(F)c1,32 µg/mL,0.25 µg/mL,0.5 µg/mL,0.5 µg/mL,0.5 µg/mL,–
O=C1O[C@@H](CO)CN1c1ccc(-c2ccc(/C=N/Nc3ncccn3)nc2)c(F)c1,4 µg/mL,0.5 µg/mL,1 µg/mL,1 µg/mL,1 µg/mL,–
NC[C@H]1CN(c2ccc(-c3ccc(/C=N/N4CCCCC4)nc3)c(F)c2)C(=O)O1,32 µg/mL,8 µg/mL,32 µg/mL,16 µg/mL,8 µg/mL,–
O=C1O[C@@H](CO)CN1c1ccc(-c2ccc(/C=N/Nc3ccc(Cl)cn3)nc2)c(F)c1,8 µg/mL,0.5 µg/mL,0.5 µg/mL,0.5 µg/mL,0.5 µg/mL,–
O=C1O[C@@H](CNS(=O)(=O)C2CC2)CN1c1ccc(-c2ccc(/C=N/N3CCCCC3)nc2)c(F)c1,> 16 µg/mL,0.25 µg/mL,> 16 µg/mL,0.25 µg/mL,0.25 µg/mL,–
O=C1O[C@@H](CO)CN1c1ccc(-c2ccc(/C=N/Nc3ccc(Cl)nn3)nc2)c(F)c1,2 µg/mL,0.5 µg/mL,1 µg/mL,0.5 µg/mL,0.5 µg/mL,–
O=C1O[C@@H](CO)CN1c1ccc(-c2ccc(/C=N/N3CCSCC3)nc2)c(F)c1,8 µg/mL,1 µg/mL,2 µg/mL,1 µg/mL,2 µg/mL,–
CS(=O)(=O)N1CCN(/N=C/c2ccc(-c3ccc(N4C[C@H](CO)OC4=O)cc3F)cn2)CC1,1 µg/mL,0.125 µg/mL,0.125 µg/mL,0.25 µg/mL,0.25 µg/mL,–
CC(C)S(=O)(=O)NC[C@H]1CN(c2ccc(-c3ccc(/C=N/N4CCCCC4)nc3)c(F)c2)C(=O)O1,> 64 µg/mL,2 µg/mL,> 64 µg/mL,4 µg/mL,4 µg/mL,–
CN1CCN(/N=C/c2ccc(-c3ccc(N4C[C@H](CO)OC4=O)cc3F)cn2)CC1,0.5 µg/mL,0.125 µg/mL,0.125 µg/mL,0.125 µg/mL,0.125 µg/mL,–

# Source: ChEMBL document CHEMBL5550154, “Novel biaryloxazolidinone derivatives with broad-spectrum antibacterial activity, favorable drug-like profiles and in vivo efficacy against linezolid-resistant Staphylococcusaureus” (Eur J Med Chem, 2024)
